Measured values from patent US12258547B2, “Cell culture plate, method for preparing thereof and method for detecting a substance” (UPM-Kymmene Corporation, priority 2019, dated 2025).

Test: 0.2% Trypan blue permeability through GrowDex barrier, visual inspection
Type: physicochemical
Conditions: 0.2% dosed to left side
Protocol: Barriers were prepared in 6-well (circular shaped barriers) and in 24-well (straight wall shaped barriers) plates, and allowed to dry overnight. The barriers were high enough to prevent passage and mixing of the solutions over them. All passage and mixing had to occur through the barriers. Barrier permeability to chemicals was tested by visual inspection using 0.2% Trypan blue, by quantitative measurement using 1 mg/ml fluorescein solution, and by indirect method using sodium dodecyl sulfate (SDS), which is a toxic compound. 400 μl Dulbecco's PBS/well was added to the 24-well plates. The plates were incubated for 1 hour at room temperature to moisturize the GrowDex barrier. The DPBS was removed and replaced with 100 μl 0.2% Trypan blue on the left side of the barrier, and with an equal amount of DPBS on the right side of the barrier.

- distribution of blue color (after six hours): absorbed most of the blue color
Compound: Cc1cc(-c2ccc(/N=N/c3c(S(=O)(=O)O)cc4cc(S(=O)(=O)O)cc(N)c4c3O)c(C)c2)ccc1/N=N/c1c(S(=O)(=O)O)cc2cc(S(=O)(=O)O)cc(N)c2c1O [Trypan Blue]
- distribution of blue color (next day): evenly distributed on the both sides of the barrier
